Test results: patent US20240197700A1, “Methods and Compositions for Treating Lysosomal Storage Disorders” (Sanford Health, priority 2021, published 2024)
“Also recorded” adds a separate entry of the source. One block for each molecule: values may come before it.

Experiments:
[1] = tested on: palmitoyl-protein thioesterase 1 (PPT1); assay: PPT1 enzyme activity in MEF lysates; assay type: cell-based, mouse; details: wild type, DIV7
Procedure: Wild type (WT) and mutant cells were treated with vehicle or AF38469 (40 nM). Cells were plated on day 0 and dosed with drug-containing media on DIV3 and DIV5. Cells were lysed, and protein quantification and enzyme activity assay were performed on DIV7. Data was analyzed with GraphPad Prism™. Two-way ANOVA. Mean±S.E.M. Tukey's multiple comparisons test. *p<0.05, **p<0.01, ***p<0.001, ****p<0.0001.

NCL PNCs = assay: Autofluorescent storage material (ASM) in Batten disease primary neuronal cultures; assay type: cell-based, mouse
Procedure: Specific experimental details are included in figure legends. […] On DIV7, cells were treated with the following dyes: Hoechst 33342 (1:1000 dilution), LysoTrackerT™ Red DND-99 (1:10,000 dilution), fixed, and imaged. Mice were given vehicle or AF38469 (78.125 μg/ml, 3.125 μg/ml, 0.3125 μg/ml or 0.03125 μg/ml equating approximately to 250 μg/mouse/day, 10 μg/mouse/day, 1 μg/mouse/day, and […], respectively, given a mouse's daily water intake of approximately 3.2 ml per day) in drinking water beginning at wean. Body weight was measured bi-weekly, and a force actimeter test was performed on Cln2^R207X mice at 10 weeks of age. Body weight was measured every month for Cln3^Δex7/8 mice. At 11 and 16 weeks of age, respectively, Cln2^R207X and Cln3^Δex7/8 mice along with age matched wild type control mice were CO2 euthanized and intracardially perfused with PBS. Brains were collected and placed on a 1 mm sagittal brain block. Brains were sliced at the midline and 3 mm right of the midline. One hemisphere was fixed in 4% PFA and sectioned at 50 microns on a vibratome. Immunohistochemistry was performed on free-floating sections. For mitochondrial ATP synthase subunit C (SubC), glial fibrillary acidic protein (GFAP), and cluster of differentiation 68 (CD68) immunolabeling, primary antibodies included anti-SubC (Abcam, ab181243; 1:1000), anti-GFAP (Dako, Z0334; 1:5000), anti-CD68 (AbD Serotec, MCA1957; 1:2000), and secondary antibodies included anti-rabbit biotinylated (Vector Labs, BA-1000 1:1000) and anti-rat (Vector Labs, BA-9400 1:1000). Coverslips were mounted on slides using antifade-mounting media and were stored in the dark before imaging. Sections were imaged and analyzed using an Aperio Digital Pathology Slide Scanner (AT2) and associated software. Images were extracted from S1BF of the somatosensory cortex and the VPM/VPL of the thalamus, with multiple images taken of multiple tissues from each animal.
• An increase in percent area or total area of positive autofluorescent storage material (ASM) signal in untreated NCL MEFs or PNCs relative to age-matched, wild type MEFs or PNCs is considered an increase in the accumulation of autofluorescent storage material, reflecting disease-related lysosomal dysfunction. • A decrease in percent area or total area of positive autofluorescent storage material signal in AF38469 treated MEFs and PNCs relative to age-matched, vehicle treated MEFs and PNCs is considered a reduction in the accumulation of autofluorescent storage material and thus a decrease in disease-related lysosomal dysfunction. • LysoTracker™ is an acidophilic dye that labels lysosomes and accumulation increases with an increase in lysosome size or number. Cell and mouse models of lysosomal storage disorders often have increased accumulation of lysosomes and therefore have a stronger LysoTracker™ signal. […]

Molecule: Cc1cccc(NC(=O)c2ccc(C(F)(F)F)cc2C(=O)O)n1 [AF38469, 2-((6-methylpyridin-2-yl)carbamoyl)-5-(trifluoromethyl)benzoic acid]
PPT1 enzyme activity ([1]; AF38469 40 nM, Cln2^R207X, Cln3^Δex7/8, Cln6^nclf, Cln11^−/− MEFs): increased the overall levels of activity; also recorded: significantly increased | accumulation of autofluorescent storage material (ASM) (NCL PNCs; 40 nM, 400 nM, 4 μM, Cln1^R151X, Cln2^R207X, Cln3^Δex7/8, Cln6^nclf PNCs, DIV7): significantly reduced | ASM levels (NCL PNCs; Cln8^mnd PNCs, DIV7): significantly increased

PPT1 enzyme activity ([1]; LM11A-31 100 nM, Cln2^R207X and Cln3^Δex7/8 MEFs): significantly increased
Molecule: CC[C@H](C)[C@H](N)C(=O)NCCN1CCOCC1 [LM11A-31, N-[2-(morpholin-4-yl)ethyl]-L-isoleucinamide]
accumulation of autofluorescent storage material (ASM) (NCL PNCs; LM11A-31 100 nM, Cln6^nclf and Cln8^mnd PNCs): significantly reduced | accumulation of autofluorescent storage material (ASM) (NCL PNCs; LM11A-31 1 μM, Cln1^R151X PNCs): significantly reduced | accumulation of autofluorescent storage material (ASM) (NCL PNCs; LM11A-31 1 μM, Cln3^Δex7/8 PNCs): significantly reduced | accumulation of autofluorescent storage material (ASM) (NCL PNCs; LM11A-31 all treatment groups, Cln2^R207X PNCs): significantly reduced | ASM (NCL PNCs; LM11A-31 varying doses, neurons of all tested NCLs): significantly reduced

PPT1 enzyme activity ([1]; semaglutide 100 nM, Cln2^R207X and Cln3^Δex7/8 MEFs): significantly increased
Molecule: semaglutide
autofluorescent storage material (ASM) signal (NCL PNCs; semaglutide 10 nM, 100 nM, 1 μM, Cln2^R207X and Cln6^nclf PNCs): significantly reduced | ASM levels (NCL PNCs; semaglutide 10 nM, 100 nM, Cln3^Δex7/8 PNCs): significantly reduced | ASM levels (NCL PNCs; semaglutide 10 nM, 1 μM, Cln1^R151X PNCs): significantly reduced | ASM levels (NCL PNCs; semaglutide 10 nM, 1 μM, Cln8^mnd PNCs): significantly reduced | ASM levels (NCL PNCs; semaglutide 100 nM, Cln1^R151X PNCs): had no impact | ASM levels (NCL PNCs; semaglutide 100 nM, Cln8^mnd PNCs): significantly elevated | ASM levels (NCL PNCs; semaglutide 1 μM, Cln3^Δex7/8 PNCs): significantly elevated
